Measurements published in PMC6859649 (Free radical biology & medicine, 2017).
Structures can show the parent of a compound that is named as a salt.

Target: Myeloperoxidase (MPO) (Homo sapiens, UniProt P05164)
Assay: taurine chloramine chlorination assay
Type: biochemical

Sequence of Myeloperoxidase (MPO) (P05164 165-273): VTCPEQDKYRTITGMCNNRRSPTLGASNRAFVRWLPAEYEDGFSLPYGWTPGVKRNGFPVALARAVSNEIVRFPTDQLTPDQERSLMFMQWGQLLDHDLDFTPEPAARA
Sequence of Myeloperoxidase (MPO) (P05164 279-745): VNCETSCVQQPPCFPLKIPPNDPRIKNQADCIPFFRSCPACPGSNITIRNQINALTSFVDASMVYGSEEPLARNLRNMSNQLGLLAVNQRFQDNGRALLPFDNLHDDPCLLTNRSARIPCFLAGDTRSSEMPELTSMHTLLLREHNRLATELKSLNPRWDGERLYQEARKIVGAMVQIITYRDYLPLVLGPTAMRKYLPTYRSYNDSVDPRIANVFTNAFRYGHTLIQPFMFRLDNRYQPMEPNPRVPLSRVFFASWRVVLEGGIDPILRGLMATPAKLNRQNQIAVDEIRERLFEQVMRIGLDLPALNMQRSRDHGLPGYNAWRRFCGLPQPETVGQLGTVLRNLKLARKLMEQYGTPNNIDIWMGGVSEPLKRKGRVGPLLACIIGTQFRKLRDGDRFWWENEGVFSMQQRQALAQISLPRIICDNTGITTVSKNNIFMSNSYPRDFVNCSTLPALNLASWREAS

O=S(=O)(O)CCS [mesna, 2-mercaptoethanesulfonic acid sodium salt]
IC50: ~5 µM
